Measurements as given in patent publication US20240132484A1, “BROAD SPECTRUM ANTIVIRAL COMPOUNDS TARGETING THE SKI COMPLEX” (priority 2020, published 2024).
Several values for one entry are separate records, joined by “and”; a condition that tells them apart may be missing. Equal values may be shown once. Read-outs that look alike come from different tables or passages of the source.

What was measured:
SARS2 = assay type: cell-based, SARS-CoV-2; conditions: for Infection Data, Average, Mean percentage infection relative to DMSO control: Average of Exp 1 (SMW491) and Exp 2 (SMW492); for Infection Data, Percentage Infection Relative to Appropriate DMSO Control: single well, avg background subtraction; for Percentage Inhibition Average 1 μM / Screening data (Relative infection to DMSO controls) Average 1 μM: SARS2, 1 μM; for Screening data (Relative infection to DMSO controls) Average 1 μM / Screening data (Relative infection to DMSO controls) Average 5 μM / Screening data (Relative infection to DMSO controls) Average 10 μM / Screening data (Relative infection to DMSO controls) Average 25 μM / Screening data (Relative infection to DMSO controls) Average 50 μM / Average (relative infection to DMSO over the 5 tested concentrations): 100=DMSO control; for Percentage Inhibition Average 5 μM / Screening data (Relative infection to DMSO controls) Average 5 μM: SARS2, 5 μM; for Percentage Inhibition Average 10 μM / Screening data (Relative infection to DMSO controls) Average 10 μM: SARS2, 10 μM; for Percentage Inhibition Average 25 μM / Screening data (Relative infection to DMSO controls) Average 25 μM: SARS2, 25 μM; for Percentage Inhibition Average 50 μM / Screening data (Relative infection to DMSO controls) Average 50 μM: SARS2, 50 μM; for Average (relative infection to DMSO over the 5 tested concentrations): SARS2, average over 1 to 50 uM
cells (nuclei count) = conditions: for Relative cell count to DMSO controls, Average 1 μM / Relative cell count to DMSO controls, Average 5 μM / Relative cell count to DMSO controls, Average 10 μM / Relative cell count to DMSO controls, Average 25 μM / Relative cell count to DMSO controls, Average 50 μM: toxicity data, 100=DMSO control; for Toxicity Data, Average, Mean percentage relative to DMSO control: Average of Exp 1 (SMW491) and Exp 2 (SMW492); for Toxicity Data, Percentage Relative to Appropriate DMSO Control: single well; for Relative cell count to DMSO controls, Average (for correlation analysis): average value over the 5 tested concentrations (1 to 50 uM)

Q: Which results are given for `COc1ccc(C2NC(=O)NC(C)=C2C(=O)NCc2ccccc2)cc1OC` (stereo not shown) [SILCS48]?
A: Infection Data, Average, Mean percentage infection relative to DMSO control (SARS2; n=4, 1 uM): 71.69%; Infection Data, Average, Mean percentage infection relative to DMSO control (SARS2; n=4, 5 uM): 75.19%; Infection Data, Average, Mean percentage infection relative to DMSO control (SARS2; n=4, 10 uM): 85.09%; Infection Data, Average, Mean percentage infection relative to DMSO control (SARS2; n=4, 25 uM): 100.34%; Infection Data, Average, Mean percentage infection relative to DMSO control (SARS2; n=4, 50 uM): 160.04%; Infection Data, Percentage Infection Relative to Appropriate DMSO Control (SARS2; Exp 1 (SMW491), 1 uM): 87.03% and 82.70%; Infection Data, Percentage Infection Relative to Appropriate DMSO Control (SARS2; Exp 1 (SMW491), 5 uM): 70.35% and 83.94%; Infection Data, Percentage Infection Relative to Appropriate DMSO Control (SARS2; Exp 1 (SMW491), 10 uM): 96.64% and 110.53%; Infection Data, Percentage Infection Relative to Appropriate DMSO Control (SARS2; Exp 1 (SMW491), 25 uM): 102.87% and 119.89%; Infection Data, Percentage Infection Relative to Appropriate DMSO Control (SARS2; Exp 1 (SMW491), 50 uM): 159.63% and 145.37%; Infection Data, Percentage Infection Relative to Appropriate DMSO Control (SARS2; Exp 2 (SMW492), 1 uM): 59.24% and 57.80%; Infection Data, Percentage Infection Relative to Appropriate DMSO Control (SARS2; Exp 2 (SMW492), 5 uM): 84.51% and 61.96%; Infection Data, Percentage Infection Relative to Appropriate DMSO Control (SARS2; Exp 2 (SMW492), 10 uM): 49.42% and 83.79%; Infection Data, Percentage Infection Relative to Appropriate DMSO Control (SARS2; Exp 2 (SMW492), 25 uM): 97.57% and 81.03%; Infection Data, Percentage Infection Relative to Appropriate DMSO Control (SARS2; Exp 2 (SMW492), 50 uM): 177.82% and 157.32%; Percentage Inhibition Average 1 μM (SARS2): 28.31%; Screening data (Relative infection to DMSO controls) Average 1 μM (SARS2): 71.69; Percentage Inhibition Average 5 μM (SARS2): 24.81%; Screening data (Relative infection to DMSO controls) Average 5 μM (SARS2): 75.19; Percentage Inhibition Average 10 μM (SARS2): 14.91%; Screening data (Relative infection to DMSO controls) Average 10 μM (SARS2): 85.09; Percentage Inhibition Average 25 μM (SARS2): −0.34%; Screening data (Relative infection to DMSO controls) Average 25 μM (SARS2): 100.34; Percentage Inhibition Average 50 μM (SARS2): −60.04%; Screening data (Relative infection to DMSO controls) Average 50 μM (SARS2): 160.04; Average (relative infection to DMSO over the 5 tested concentrations) (SARS2): 98.47; Relative cell count to DMSO controls, Average 1 μM (cells (nuclei count)): 119.19; Relative cell count to DMSO controls, Average 5 μM (cells (nuclei count)): 115.84; Relative cell count to DMSO controls, Average 10 μM (cells (nuclei count)): 107.43; Relative cell count to DMSO controls, Average 25 μM (cells (nuclei count)): 102.04; Relative cell count to DMSO controls, Average 50 μM (cells (nuclei count)): 77.81; Toxicity Data, Average, Mean percentage relative to DMSO control (cells (nuclei count); n=4, 1 uM): 119.19%; Toxicity Data, Average, Mean percentage relative to DMSO control (cells (nuclei count); n=4, 5 uM): 115.84%; Toxicity Data, Average, Mean percentage relative to DMSO control (cells (nuclei count); n=4, 10 uM): 107.43%; Toxicity Data, Average, Mean percentage relative to DMSO control (cells (nuclei count); n=4, 25 uM): 102.04%; Toxicity Data, Average, Mean percentage relative to DMSO control (cells (nuclei count); n=4, 50 uM): 77.81%; Toxicity Data, Percentage Relative to Appropriate DMSO Control (cells (nuclei count); Exp 1 (SMW491), 1 uM): 112% and 102%; Toxicity Data, Percentage Relative to Appropriate DMSO Control (cells (nuclei count); Exp 1 (SMW491), 5 uM): 108% and 106%; Toxicity Data, Percentage Relative to Appropriate DMSO Control (cells (nuclei count); Exp 1 (SMW491), 10 uM): 86% and 88%; Toxicity Data, Percentage Relative to Appropriate DMSO Control (cells (nuclei count); Exp 1 (SMW491), 25 uM): 95% and 88%; Toxicity Data, Percentage Relative to Appropriate DMSO Control (cells (nuclei count); Exp 1 (SMW491), 50 uM): 79% and 77%; Toxicity Data, Percentage Relative to Appropriate DMSO Control (cells (nuclei count); Exp 2 (SMW492), 1 uM): 130% and 132%; Toxicity Data, Percentage Relative to Appropriate DMSO Control (cells (nuclei count); Exp 2 (SMW492), 5 uM): 115% and 135%; Toxicity Data, Percentage Relative to Appropriate DMSO Control (cells (nuclei count); Exp 2 (SMW492), 10 uM): 135% and 121%; Toxicity Data, Percentage Relative to Appropriate DMSO Control (cells (nuclei count); Exp 2 (SMW492), 25 uM): 109% and 116%; Toxicity Data, Percentage Relative to Appropriate DMSO Control (cells (nuclei count); Exp 2 (SMW492), 50 uM): 81% and 75%; Relative cell count to DMSO controls, Average (for correlation analysis) (cells (nuclei count)): 104.46

Q: Which “Percentage Inhibition Average 1 μM” value (SARS2) does the source give for `COc1ccc(-c2[nH]ncc2C(=O)NCC2CCC2)cc1OC` [SILCS54] here?
A: Its value is 0.61%.

Q: And the “Screening data (Relative infection to DMSO controls) Average 1 μM” value (SARS2)?
A: Its value is 99.39.

Q: And the “Percentage Inhibition Average 5 μM” value (SARS2)?
A: Its value is 7.12%.

Q: What about the “Screening data (Relative infection to DMSO controls) Average 5 μM” value (SARS2) of the same molecule?
A: Its value is 92.88.

Q: And the “Percentage Inhibition Average 10 μM” value (SARS2)?
A: Its value is 10.70%.

Q: What about the “Screening data (Relative infection to DMSO controls) Average 10 μM” value (SARS2) of the same molecule?
A: Its value is 89.30.

Q: And the “Percentage Inhibition Average 25 μM” value (SARS2)?
A: Its value is −5.10%.

Q: And the “Screening data (Relative infection to DMSO controls) Average 25 μM” value (SARS2)?
A: The value was 105.10.

Q: And the “Percentage Inhibition Average 50 μM” value (SARS2)?
A: Its value is −13.08%.

Q: And the “Screening data (Relative infection to DMSO controls) Average 50 μM” value (SARS2)?
A: The value was 113.08.

Q: And the “Average (relative infection to DMSO over the 5 tested concentrations)” value (SARS2)?
A: Its value is 99.95.

Q: What about the “Relative cell count to DMSO controls, Average 1 μM” value (cells (nuclei count)) of the same molecule?
A: The value was 100.58.

Q: And the “Relative cell count to DMSO controls, Average 5 μM” value (cells (nuclei count))?
A: Its value is 101.65.

Q: And the “Relative cell count to DMSO controls, Average 10 μM” value (cells (nuclei count))?
A: The value was 100.51.

Q: What about the “Relative cell count to DMSO controls, Average 25 μM” value (cells (nuclei count)) of the same molecule?
A: Its value is 99.71.

Q: What about the “Relative cell count to DMSO controls, Average 50 μM” value (cells (nuclei count)) of the same molecule?
A: The value was 88.29.

Q: And the “Relative cell count to DMSO controls, Average (for correlation analysis)” value (cells (nuclei count))?
A: The value was 98.15.
